# Data: US20030181447A1, “3-(Diarylmethylene)-8-azabicyclo[3.2.1]octane derivatives” (priority 2001, published 2003)
# Where a name gives a salt, the structure may show the parent alone.
# How the values were obtained:
# [1] = test system: mouse acetylcholine bromide-induced abdominal constriction; test: Mouse acetylcholine bromide-induced abdominal constriction assay; format: in vivo; details: 150 μmole/Kg p.o., 30 min before 5.5 mg/kg acetylcholine bromide i.p.
# Description: Mouse Acetylcholine Bromide-Induced Abdominal Constriction Assay
# The mouse acetylcholine-induced abdominal constriction assay (as described by Collier et al. in Brit. J. Pharmacol. Chem. Ther., 1968, 32: 295-310 with minor modifications) was used to assess analgesic potency of the compounds of formula (I). The test drugs or appropriate vehicles were administered orally (p.o.) and 30 min later the animal received an intraperitoneal (i.p.) injection of 5.5 mg/kg acetylcholine bromide (Matheson, Coleman and Bell, East Rutherford, N.J.). The mice were then placed in groups of three into glass bell jars and observed for a ten min observation period for the occurrence of an abdominal constriction response (defined as a wave of constriction and elongation passing caudally along the abdominal wall, accompanied by a twisting of the trunk and followed by extension of the hind limbs). For compounds of the present invention, the percent inhibition of this response to a nociceptive stimulus (equated to % analgesia) was calculated as follows: [formula]
Structure (SMILES),melting point,percent inhibition of abdominal constriction response (% analgesia) [1]
"CCN(CC)C(=O)c1ccc(C(=C2CC3CCC(C2)N3CCc2ccccc2)c2ccccc2)cc1 (single isomer, unassigned; (-)) (as salt: hydrochloride) [Example 23]",210 to 211 °C,–
"CCN(CC)C(=O)c1ccc(C(=C2CC3CCC(C2)N3C)c2ccccc2)cc1.Cl [Example 1, N,N-Diethyl-4-[(8-methyl-8-azabicyclo[3.2.1]oct-3-ylidene)phenylmethyl]benzamide Hydrochloride [1:1]]",145 to 147 °C,87%
"CCN(CC)C(=O)c1ccc(C(=C2CC3CCC(C2)N3)c2ccccc2)cc1.Cl [Example 2, N,N-Diethyl-4-[(8-azabicyclo[3.2.1]oct-3-ylidene)phenylmethyl]benzamide Hydrochloride [1:1]]",128 to 132 °C,–
"CCCN1C2CCC1CC(=C(c1ccccc1)c1ccc(C(=O)N(CC)CC)cc1)C2.Cl [Example 18, N,N-Diethyl-4-[(8-propyl-8-azabicyclo[3.2.1]oct-3-ylidene)phenylmethyl]benzamide Hydrochloride [1:1]]",184 °C,–

# Continued, in another order:
melting point,Structure (SMILES),percent inhibition of abdominal constriction response (% analgesia) [1]
210 to 212 °C,"NC(=O)c1ccc(C(=C2CC3CCC(C2)N3CCc2ccccc2)c2ccccc2)cc1 (as salt: hydrochloride) [Example 29, 4-[(8-Phenethyl-8-azabicyclo[3.2.1]oct-3-ylidene)phenylmethyl]benzamide Hydrochloride [1:1].]",–
296 to 298 °C (dec.),"CCNC(=O)c1ccc(C(=C2CC3CCC(C2)N3CCc2ccccc2)c2ccccc2)cc1 (as salt: HCl) [Example 26, N-Ethyl-4-[(8-phenethyl-8-azabicyclo[3.2.1]oct-3-ylidene)phenylmethyl]benzamide]",–
211 to 212 °C,"CCN(CC)C(=O)c1ccc(C(=C2CC3CCC(C2)N3CCc2ccccc2)c2ccccc2)cc1 (single isomer, unassigned; (+)) (as salt: hydrochloride) [Example 24]",–
122 to 125 °C,"CN(C(=O)c1cccc(C(=C2CC3CCC(C2)N3C)c2ccccc2)c1)c1cccc(F)c1.O=C(O)/C=C/C(=O)O [Example 22, N-(3-Fluorophenyl)-N-methyl-3-[(8-methyl-8-azabicyclo[3.2.1]oct-3-ylidene)phenylmethyl]benzamide Fumarate [1:1]]",–
